How the values were obtained:
[1] = Liver, kidney, spleen weights and body weight gain (Example 13); assay type: in vivo, mice; conditions: for Kidney weight / Liver weight / Spleen weight: saline = 1.00; for Body weight gain: saline = 1.05; for liver, kidney, spleen weights or body weight gain compared to saline: normal mice, 20 and 60 mg/kg
Experimental: (§1) In accordance with the present invention, oligomeric compounds were synthesized and tested for their ability to reduce PTEN expression in vivo at doses of 20 and 60 mg/kg. Six week old male Balb/c mice (Jackson Laboratory, Bar Harbor, Me.) were administered a single intraperitoneal (i.p) injection at either 20 or 60 mg/kg of 4′-CH2—O-2′ BNA 2-10-2 gapped oligomers ([…] and 392745). The 4′-CH2—O-2′ BNA gapped oligomer, 392745, contains non-methylated pyrimidine in the wings. The 4′-CH2—O-2′ BNA gapped oligomer, 392063, contains methylated pyrimidine in the wings (i.e. each cytosine residues in the 4′-CH2—O-2′ BNA wings of 392745 are replaced with 5-methylcytosines, while the thymidine residues in the 4′-CH2—O-2′ BNA wings of 392745 are replaced with 5-methyl thymidines). All internucleoside linkages are phosphorothioates, nucleosides not followed by a subscript are βD-2′-deoxyribonucleosides, nucleosides followed by a subscript 1 are 4′-CH2—O-2′ modified bicyclic nucleosides and ^MeC indicates a 5′-methyl cytosine nucleoside.
The effects on liver, kidney, spleen weights and body weight gain were also determined.

PTEN mRNA [2] = assay: PTEN mRNA levels in liver, real-time PCR (Example 13 in vivo study); conditions: Balb/c mice, 72 h, normalized to saline control
Experimental: as §1
(§2) Each dose group consisted of four animals. The mice were sacrificed 72 hours following the final administration to determine the PTEN mRNA levels in liver using real-time PCR and RIBOGREEN® RNA quantification reagent (Molecular Probes, Inc. Eugene, Oreg.) according to standard protocols. PTEN mRNA levels were determined relative to total RNA (using Ribogreen), prior to normalization to saline-treated control. Results are listed below as the average % inhibition of mRNA expression for each treatment group, normalized to saline-injected control. Resulting dose-response curves were used to determine the IC50. Tm's were assessed in 100 mM phosphate buffer, 0.1 mM EDTA, pH 7, at 260 nm using 4 μM modified oligomers and 4 μM complementary RNA.

complementary RNA = assay: Tm of modified oligomers with complementary RNA; assay type: binding; conditions: 100 mM phosphate buffer, 0.1 mM EDTA, pH 7, 260 nm, 4 μM oligomer and 4 μM complementary RNA
Experimental: as §2

PTEN mRNA [3] = assay: PTEN mRNA levels in liver, real-time PCR (Example 14 in vivo study); parameters: species or system mice; conditions: for PTEN mRNA levels (% inhibition): liver, 72 h; for ED50: estimated, Graphpad Prism, dose at which 50% mRNA reduction is observed
Experimental: (§3) Six week old male Balb/c mice (Jackson Laboratory, Bar Harbor, Me.) were administered a single intraperitoneal (i.p) injection with 4′-CH2—O-2′ BNA containing oligomers (392745 and 392063) and 6(S)-4′-CH(CH3)—O-2′ BNA containing oligomers (392749 and 411847) at a does of 3.2, 10, 32, 66 and 100 mg/kg. Oligomers 392063 and 411847 contain LNA nucleosides with methylated pyrimidines, and oligomers 392745 and 392749 contain LNA nucleosides with non-methylated pyrimidines in the wings. All intemucleoside linkages are phosphorothioates, nucleosides not followed by a subscript are βD-2′-deoxyribonucleosides, nucleosides followed by a subscript 1 are 4′-CH2—O-2′ modified bicyclic nucleosides, nucleosides followed by a subscript S are 6(S)-4′-CH(CH3)—O-2′ modified bicyclic nucleosides wherein S indicates the configuration at the 6 carbon atom and ^MeC indicates a 5′-methyl cytosine nucleoside.
as §2, with “control.” for “control. Resulting dose-response curves were used to determine the IC50. Tm's were assessed in 100 mM phosphate buffer, 0.1 mM EDTA, pH 7, at 260 nm using 4 μM modified oligomers and 4 μM complementary RNA.”
Estimated ED50 concentrations for each oligomers were calculated using Graphpad Prism. ED50 is the dose at which 50% mRNA reducation is observed.

[4] = Liver transaminase levels (ALT, AST) in serum (Example 13); assay type: in vivo, mice; conditions: for transaminase levels with respect to saline treated control: 20 mg/kg; for ALT / AST: serum; for ALT: saline = 24; for AST: saline = 68
Experimental: as §1
Liver transaminase levels, alanine aminotranferease (ALT) and aspartate aminotransferase (AST), in serum were also measured relative to saline injected mice. Increases in the transaminase levels can indicate hepatotoxicity. […] The ALT and AST levels measured for mice treated with 60 mg/kg does of 392745 were decreased about 4.5-fold and 3 fold as compared to 392063 treatment. The approximate liver transaminase levels are listed below.

[5] = Liver transaminase (ALT) levels in serum (Example 14); assay type: in vivo, mice
Experimental: as §3
Liver transaminase levels, alanine aminotranferease (ALT) and aspartate aminotransferase (AST), in serum were also measured relative to saline injected mice. Increases in the transaminase levels can indicate hepatotoxicity. The approximate liver transaminase levels are listed below.

| Substance | Kidney weight ([1]; 20 mg/kg) | Liver weight ([1]; 20 mg/kg) | Spleen weight ([1]; 20 mg/kg) | Body weight gain ([1]; 20 mg/kg) | Kidney weight ([1]; 60 mg/kg) | Liver weight ([1]; 60 mg/kg) | Spleen weight ([1]; 60 mg/kg) | Body weight gain ([1]; 60 mg/kg) | liver, kidney, spleen weights or body weight gain compared to saline [1] | % inhibition (PTEN mRNA expression in liver) (PTEN mRNA [2]; 20 mg/kg single i.p.) [%] | % inhibition (PTEN mRNA expression in liver) (PTEN mRNA [2]; 60 mg/kg single i.p.) [%] | Tm (complementary RNA) [°C] | PTEN mRNA levels (% inhibition) (PTEN mRNA [3]; 3.2 mg/kg single i.p.) [%] | PTEN mRNA levels (% inhibition) (PTEN mRNA [3]; 10 mg/kg single i.p.) [%] | PTEN mRNA levels (% inhibition) (PTEN mRNA [3]; 32 mg/kg single i.p.) [%] | PTEN mRNA levels (% inhibition) (PTEN mRNA [3]; 66 mg/kg single i.p.) [%] | PTEN mRNA levels (% inhibition) (PTEN mRNA [3]; 100 mg/kg single i.p.) [%] | ED50 (PTEN mRNA [3]) [mg/kg] | transaminase levels with respect to saline treated control [4] | ALT ([4]; 20 mg/kg single i.p.) [IU/L] | other results |
| --- | --- | --- | --- | --- | --- | --- | --- | --- | --- | --- | --- | --- | --- | --- | --- | --- | --- | --- | --- | --- | --- |
| C1U1TAGCACTGGCC1U1 [ISIS 392745] | 1.02 | 1.22 | 1.14 | 1.06 | 1.02 | 1.25 | 1.12 | 1.01 | did not substantially alter | 89 | 92 | 58.6 | 0 | 58 | 90 | 90 | 93 | 9 | not elevated to a level indicative of hepatotoxicity | 29 | AST ([4]; 20 mg/kg single i.p.): 81 IU/L; ALT level decrease as compared to 392063 treatment ([4]; 60 mg/kg): about 4.5 fold; AST level decrease as compared to 392063 treatment ([4]; 60 mg/kg): ~3 fold; ALT ([4]; 60 mg/kg single i.p.): 108 IU/L; AST ([4]; 60 mg/kg single i.p.): 202 IU/L; ALT levels ([5]; 3.2 mg/kg, serum, saline = 24): 30 IU/L; ALT levels ([5]; 10 mg/kg, serum, saline = 24): 20 IU/L; ALT levels ([5]; 32 mg/kg, serum, saline = 24): 13 IU/L; ALT levels ([5]; 66 mg/kg, serum, saline = 24): 59 IU/L; ALT level decrease as compared to 392063 treatment ([5]; 100 mg/kg): about 3.5 fold; ALT levels ([5]; 100 mg/kg, serum, saline = 24): 3842 IU/L; ALT levels with respect to saline treated control ([5]; lower doses (3.2, 10, 32 and 66 mg/kg)): not elevated to a level indicative of hepatotoxicity |
| ^MeC1T1TAGCACTGGC^MeC1T1 [ISIS 392063] | 1.02 | 1.22 | 0.99 | 1.05 | 1.00 | 1.29 | 1.11 | 0.99 | did not substantially alter | 86 | 92 | 60.5 | 0 | 68 | 88 | 90 | 91 | 8 | not elevated to a level indicative of hepatotoxicity | 28 | AST ([4]; 20 mg/kg single i.p.): 56 IU/L; ALT and AST levels ([4]; 60 mg/kg): substantially increased; ALT ([4]; 60 mg/kg single i.p.): 489 IU/L; AST ([4]; 60 mg/kg single i.p.): 598 IU/L; ALT levels ([5]; 3.2 mg/kg, serum, saline = 24): 20 IU/L; ALT levels ([5]; 10 mg/kg, serum, saline = 24): 17 IU/L; ALT levels ([5]; 32 mg/kg, serum, saline = 24): 20 IU/L; ALT levels ([5]; 66 mg/kg, serum, saline = 24): 4292 IU/L; ALT levels ([5]; 100 mg/kg, serum, saline = 24): 13811 IU/L; ALT levels ([5]; higher doses (66 mg/kg and 100 mg/kg)): substantially increased |

Source: patent US8846639B2, “Oligomeric compounds comprising bicyclic nucleosides and having reduced toxicity” (Isis Pharmaceutical, Inc., priority 2008, dated 2014)
